The text below walks through data of patent US8618074B2, “GPCR enhanced neuroprotection to treat brain injury” (Board of Regents of the University of Texas System, priority 2007, dated 2013).

Test [1] deals with HEK293 cells that were overexpressing type 1 muscarinic acetylcholine receptors (mAchR1s). The test is described as follows: Cell death induced by t-BuOOH or ceramide with IP3-gated Ca2+ release stimulation. The format is cell-based, human. Conditions: ACh 1 μM; t-BuOOH (100 μM, 3 hrs) or ceramide (40 μM, 12 hrs). An excerpt:
P2 purinoceptors are a class of cell surface receptors, subdivided into either the ligand-gated ionotropic receptors (P2X) or G-protein-coupled metabotropic receptors (P2Y)). We focused our work on the P2Y-Rs due to their strong coupling to Gq/11 signaling pathway in astrocytes. Activation of P2Y-receptors stimulates PLCB isoenzymes, increasing inositol triphosphate (IP3) formation and subsequent Ca^2+ mobilization from thapsigargin sensitive stores in the endoplasmic reticulum (ER). Thapsigargin is a specific inhibitor of the sarco-endoplasmic reticulum Ca^2+ ATPases (SERCAs). As mentioned above, IP3-mediated Ca^2+ release is efficiently sequestered by mitochondria, due to its physically close proximity the Ca^2+ channel pore. Increased mitochondrial Ca^2+ uptake via the Ca^2+ uniporter rapidly stimulates Ca^2+ sensitive dehydrogenases and subsequently, increases respiration and ATP production. […] Another important point to make with regard to mitochondrial Ca^2+ signaling is that high matrix Ca^2+ is generally thought to sensitize cells to cell death stimuli. During prolonged periods or with sufficiently high concentrations, matrix Ca^2+ induces opening of the mitochondrial permeability transition pore (MPT). Recent work has identified the mitochondrial targeted cyclophilin D as a key player in Ca^2+ stimulated cell death. […]

The test system of test [2] is astrocytes. The test is described as follows: Time until mitochondrial membrane potential (ΔΨ, TMRE) collapse during t-BuOOH oxidative stress. The format is cell-based, mouse. Conditions: for time until ΔΨ collapse: then t-BuOOH; for average time until ΔΨ collapse: XeC 25 μM pretreatment + ATP 10 μM, then t-BuOOH 100 μM. As for the experimental part: Primary cultures of astrocytes were prepared as previously published (Lin et al., 2005). C57BL/6 male mice were purchased from the National Institute of Aging and maintained in standard accredited housing conditions at the University of Texas Health Science Center Animal Facility. Animal protocols were approved by our Institutional Animal Care Use Committee. Astrocytes were cultured in DMEM F-12 media (Invitrogen, # 11039-021) supplemented with 2 mM glutamine, nonessential amino acids, 10% fetal calf serum, 100 U/ml penicillin/streptomycin (Cambrex BioScience Walkersville, #17-602E) and 1% fungizone (Invitrogen, #15290-018) at 37° C. in an atmosphere containing 5% CO2. The culture medium was changed every 3-5 days. Confluent cells were gently removed by a trypsin EDTA solution and re-plated on 35 mm glass bottom chambers (Bioptechs #04200415C) prior to imaging experiments 3-4 days later. Cells were maintained in plastic culture flasks until the final re-seeding of cells onto a glass bottom chamber and were passed up to 3 times for astrocyte only experiments. For co-culture experiments with neurons, primary astrocytes were plated directly onto corning transwell-clear permeable supports, which physically separates the two cell-types by ˜1 mm (# 07-200-170, Fisher scientific). Astrocytes were cultured in transwells until they were ˜70% confluent. Mouse cortical neurons (Cambrex Bio Science Walkersville Inc., # M-CX-300) were then cultured onto 6 well mat-tek glass bottom plates and maintained in Neurobasal Medium (Invitrogen, # 21103-049), 2 mM L-Glutamine (Cambrex BioScience Walkersville, #17-605E), 100 U/ml penicillin/streptomycin (Cambrex BioScience Walkersville, #17-602E) and B-27 with (Invitrogen, #17504-044) and without antioxidants (Invitrogen, #10889-038), which controls glia contamination to less than 0.5%. The transwell supports with cultured astrocytes were placed in the neuron seeded glass bottom chambers for four days before imaging and both cell types were then maintained in neuronal media. For neuron only experiments, the astrocytes on the transwell supports were removed prior to treatments and imaging.
(§1) Mitochondrial membrane potentials (ΔΨs) was measured as previously described using the potential sensitive dye tetra-methyl rhodamine ethyl ester (TMRE, Molecular Probes, #T-669) (Lin and Lechleiter, 2002). Images were acquired with a 60× oil 1.4 NA objective on a Nikon PCM2000 confocal microscope custom adapted for two-photon imaging. A Ti-sapphire Coherent Mira 900 Laser pumped with a 5W Verdi laser (Coherent Inc., Santa Clara, Calif.) was used to excite TMRE at 800 nm A neutral-density filter wheel was used to attenuate the laser intensity so that no detectable photobleaching of TMRE was observed.
To investigate this, primary cultures of astrocytes were prepared from the brains of young (4-6 months) and old (26-28 months) mice and re-plated on glass coverslips prior to each imaging experiment as previously described. Seeded glass coverslips were then sealed in an open chamber (Bioptechs Delta T) and perfused at 37° C. with the potential sensitive dye tetramethyl rhodamine ethyl ester (TMRE, 200 nM, Molecular Probes/Invitrogen) to label astrocyte mitochondria. Mitochondrial membrane potentials (ΔΨs) were measured every 5 minutes using two-photon microscopy. Each image is a maximum intensity projection of a z-stack of six optical sections (1-μm steps). Scale bar is 10 μm. Plated cells were continuously perfused at 37° C. with culture medium containing TMRE (200 nM) and imaged with 2-photon microscopy (800 nm). Oxidative stress was applied to the cells in the perfusate with t-BuOOH (100 μM). Cell viability was then monitored by the collapse of ΔΨ (TMRE fluorescence) to 10% of its initial value. The time course of ΔΨ collapse is plotted for 3 astrocytes (A1, A2, A3) in each culture (FIGS. 1B and 2B). Fluorescent units are scaled to 100% at 0 hours. […]

Test [3] relates to astrocytes. The test is described as follows: Fura-2 two-photon imaging of intracellular Ca2+ response. Conditions: for Ca2+ response: then IP3-BM. The format is cell-based, mouse. As for the experimental part:
Ca^2+ activity was imaged as previously described (Camacho and Lechleiter, 1995). In brief, cultured astrocytes were incubated with the fura-2 am (Molecular Probes, #F-1221) 30 min prior to the experiment. Images were acquired with two-photon excitation (800 nm) at the rate of 1.5 images/ sec. […] Images were analyzed with Image J and ANALYZE® software (the Mayo Foundation, Rochester, MN). The D-enantiomer of the 1P3-BM ester was synthesized by Stuart Conway in the Cambridge University Chemical Laboratory by using a modification of the protocol of Tsien and co-workers (Li et al., 1997).
The primary response of glial cells to extracellular ATP is an increase in intracellular Ca^2+. To investigate whether the protective effect of ATP could be initiated by a Ca^2+ response, we loaded cultures of astrocytes with the Ca^2+ indicator dye Fura-2 AM (10 μM for 30 minutes). Fura-2 fluorescence was imaged with 2-photon microscopy using 800 nm excitation. At this wavelength, fluorescence is primarily due to the Ca^2+ free form of fura-2. […] When young astrocyte cultures were exposed to extracellular ATP (10 μM for 10 minutes), the peak intracellular Ca^2+ (−ΔF/F) was increased to 0.46±0.02 (n=25, pooled from 2 experiments). […] We tested whether the ATP-induced Ca^2+ response could be attributed to the metabotropic pathway, since IP3 mediated Ca^2+ release can stimulate mitochondrial energy production as well as sensitize mitochondria to apoptotic stimuli. Astrocytes cultured from old mice were pretreated with Xestospongin C (XeC, 25 μM for 30 minutes), which is a competitive inhibitor of IP3 binding to the IP3R. […] This is consistent with other reports showing that activation of the ionotropic P2X receptor activation also increases Ca^2+ in cultured astrocytes. To determine whether the metabotropic pathway was involved with the protective effect of extracellular ATP, we subsequently exposed the XeC/ATP treated astrocytes to oxidative stress. As described above, the perfusate contained t-BuOOH (100 μM) and TMRE (200 nM) to monitor ΔΨ. Under these experimental conditions, the average time until ΔΨ collapse was reduced to 5.48±0.22 (n=23, pooled from 2 experiments) in young astrocytes (FIG. 1C) and to 4.02±0.18 h (n=19, pooled from 2 experiments) in old astrocytes (FIG. 2C). […] We concluded that the protective effect of ATP on astrocytes was mediated by P2Y-receptors (P2Y-Rs).

Test [4] deals with astrocytes. The test can be described thus: Mitochondrial membrane potential ΔΨ estimated as log(Fmito/Fcyto) with TMRE. The format is cell-based, mouse. As for the experimental part: as §1
We confirmed this by directly measuring the effect of ATP, ATP plus XeC and IP3-BM treatments on ΔΨ. Cultured cells were labeled with TMRE (200 nM) and imaged with a two-photon microscope as described above. ΔΨ was estimated as the log (Fmito/Fcyto) where Fmito is the peak fluorescent intensity observed in single mitochondria (Farkas et al., 1989; Lin et al., 2005). The mean values of individual mitochondria from a single cell were used for the mitochondrial potential estimate. Fcyto represents the lowest value of TMRE fluorescence observed within the boundaries of the same cell. […] FIG. 5E depicts a histogram plot showing average mitochondrial membrane potentials before and after treatment. The mean resting ΔΨs for untreated (Buffer), ATP-treated, ATP plus XeC-treated and IP3-BM-treated were 1.84+0.01 (n=78 mitochondria, pooled from 2 experiments), 1.84+0.01 (n=85 mitochondria), 1.85+0.01 (n=80 mitochondria) and 1.86+0.01 (n=48 mitochondria), respectively. Astrocyte cultures were then exposed to their respective treatments and the same fields of mitochondria were imaged 10 minutes later.

Test [5] has as its system Rose Bengal (RB)-induced cerebral infarcts in mouse cortex. The test can be described thus: RB-induced photothrombosis lesion size in parietal cortex of GFAP-GFP transgenic mice (confocal). The class given is in vivo. Conditions: 24 and 48 hours post-ischemia; with versus without MRS2365. From the text:
A precise clot in a blood vessel is induced using the photosensitive dye Rose Bengal (RB) in the mouse cortex. The blood vessels were simultaneously imaged by injecting the red fluorescent dye […] into the mouse circulation. The targeted blood vessel is illuminated by a 543-nm laser after tail vein injection of RB. RB is activated by the laser and interacts with molecular oxygen to form singlet oxygen, which is known to damage endothelial cells within the blood vessel, thereby triggering the natural clotting cascade and leading to formation of a clot. Pharmacological agents can be introduced at the time of photoactivation which also causes the breakdown of the blood-brain barrier.
The parietal cortex of GFAP-GFP transgenic mice was imaged using confocal microscopy and a 40×NA 0.8 or 10×NA 0.45 objective. The same region of the cortex was periodically imaged prior to RB injection, and 10, 20, 30, and 40 minutes post-RB injection. RB is impermeable to the BBB and is cleared quickly under physiological conditions.
The parietal cortex of GFAP-GFP transgenic mice was imaged using confocal microscopy and a 10×0.45 NA objective. […] The size of the lesion was calculated in Image J by tracing the region of the cortex that was void of GFP expressing astrocytes. […]

Consider `CC(=O)OCC[N+](C)(C)C` [ACh], for which the cell death result in test [1] was “significantly higher”.
With `CCCC(=O)OCOP(=O)(OCOC(=O)CCC)O[C@@H]1[C@H](O)[C@H](O)[C@@H](OP(=O)(OCOC(=O)CCC)OCOC(=O)CCC)[C@H](OP(=O)(OCOC(=O)CCC)OCOC(=O)CCC)[C@H]1O` [IP3-BM, butyryloxymethyl ester of IP3], the “time until ΔΨ collapse” value with astrocytes [2] (old astrocytes, IP3-BM 25 μM fifteen minutes) is 6.32±0.35; with astrocytes [2] (young astrocytes, IP3-BM 25 μM fifteen minutes), 6.82±0.32. In addition, the “peak Ca2+ response” value in the test with astrocytes [3] (old astrocytes, IP3-BM 25 μM) came to 0.24±0.02; in the test on astrocytes [3] (young astrocytes, IP3-BM 25 μM), 0.34±0.02. Further, in the test on astrocytes [4] (treating astrocytes for 10 minutes), the “ΔΨ (log Fmito/Fcyto) after treatment” value is on record as 2.02±0.01.
Regarding `CSc1nc(N)c2ncn([C@H]3[C@H](O)[C@H](O)[C@]4(COP(=O)(O)OP(=O)(O)O)C[C@H]34)c2n1` [MRS2365, N-methanocarba-2MeSADP], in test [5], the “size of the lesion (cortex void of GFP expressing astrocytes)” value is recorded as “greatly reduces the size of the lesion”.
Consider `C1CCC[C@H]2CCCN3CC[C@@H](CCCCCC[C@@H]4CCCN5CC[C@@H](CC1)O[C@@H]45)O[C@@H]23` [XeC, Xestospongin C], for which the “average time until ΔΨ collapse” value with astrocytes [2] (old astrocytes) worked out at 4.02 ± 0.18 h; with astrocytes [2] (young astrocytes) it was 5.48 ± 0.22 h. The “time until ΔΨ collapse” value with astrocytes [2] (old astrocytes, XeC pretreatment + IP3-BM) is recorded as 4.48±0.07; with astrocytes [2] (young astrocytes, XeC pretreatment + IP3-BM), 4.73±0.05. Further, the “peak Ca2+ response” value in the test on astrocytes [3] (old astrocytes, XeC 25 μM 30 min pretreatment, then ATP 10 μM) is reported as 0.28±0.04. For the same molecule, the “Ca2+ response” value with astrocytes [3] (old astrocytes, XeC 25 μM 30 min pretreatment) is recorded as 0.13±0.01; in the test with astrocytes [3] (young astrocytes, XeC 25 μM 30 min pretreatment), 0.11±0.01. The “ΔΨ (log Fmito/Fcyto) after treatment” value in the test with astrocytes [4] (pretreated with XeC and then exposed to ATP) is on record as 1.87±0.01.
